Key:
ARPE-19 cells = experiment: NaN3-induced injury in ARPE-19 cells (MTT); format: cell-based, human; conditions: 72 h
Experimental: MTT assay was used to measure the viability of ARPE-19 cells and HUVECs. 2×10^5 ARPE-19 cells or 5×10^4 HUVECs were seeded in 96-well plates ([…]) and allowed to grow overnight. Negative control was prepared by adding 100 μl medium without cells. The cells were then treated with fresh medium with COMPOUND I (0.03, 0.1, 0.3, 1, 3 and 10 μg/ml) and/or oxidants (NaIO3, H2O2, t-BHP and NaN3) for 12, 24, or 72 hours (200 μl/well). The vehicle control group was treated with vehicle. 20 μl MTT (5 mg/ml) was added to wells, and incubated for another 4 h. After incubation, the medium was discarded and 100 μl DMSO was added to solubilize formazan produced from MTT by the viable cells. Absorbance was measured at 570 nm using a microplate reader (Bio-Rad Laboratories, Inc., CA). Cells viability was calculated according to the following formula: Viability of cells (%)=(absorbance in tested sample−absorbance in negative control)/(absorbance in vehicle control−absorbance in negative control)×100%.

[1] = tested on: Rabbit with Experimental Ocular Hypertension; experiment: Ocular blood flow (colored microspheres) in rabbit with experimental ocular hypertension; format: in vivo, New Zealand white rabbits; conditions: 1% topical, 50 μl
Experimental: Rabbits were anesthetized with 35 mg/kg ketamine and 5 mg/kg Balanzine (10% xylazine) by intramuscular injection. Half of the initial dose was given every one hour thereafter. The left ventricle was cannulated through the right carotid artery for injection of colored microspheres and the femoral artery was cannulated for collection of blood samples. The left eye was treated with one drop of proparacaine hydrochloride ophthalmic solution (Bausch & Lomb, Inc., Tampa, Fla., USA). The needle was inserted directly into the anterior chamber of the left eye, which was connected to the 40 mmHg saline manometer. The ocular hypertensive model reduced the ocular blood flow to approximately one third of the normal valued. […] The ocular blood flow was measured by colored microspheres at 0, 30, 60 and 120 minutes after treatment with COMPOUND I or vehicle. […] The blood sample was collected in a heparinized tube and the volume was recorded. […]
The details of sample processing and microspheres counting were provided by E-Z Trac (Los Angeles, Calif., USA). […] The number of microspheres was counted by the hemocytometer under the microscope. […] The protocol thereafter was the same as that used to process the blood samples, and the microspheres were counted.
The blood flow of each tissue at a certain time point was calculated according to the following formula: Qm=(Cm×Qt)/Cr. […]

VEGF = VEGF levels in retina, Western Blot, streptozotocin-induced diabetic retinopathy; format: in vivo, Sprague-Dawley female rats
mouse model of CNV = experiment: Laser-induced CNV mouse model (FP, FFA, OCT); format: in vivo, C57BL/6J mice
Experimental: Male C57BL/6J mice (BioLASCO Taiwan Co.) were maintained within the Animal Center at Taipei Medical University (TMU) and the CNV study was performed in accordance with ARVO statement and the experimental protocols were approved by the Institutional Animal Care and Use Committee of TMU (LAC-2017-0130). To create CNV, mice were anesthetized by injection of Balanzine (10% xylazine) (10 mg/kg) and Ketamine (80 mg/kg). The rupture of Bruch's membrane-choroid was achieved by laser photocoagulation (Micron III system, Phoenix Research Laboratories, Pleasanton, Calif.) using CNV laser burns of four spots (0.1-second duration, 250 mW) approximately two disc-diameters away from the optic disc. […]
The OCT module of the Micron III (Phoenix Research Laboratories, Pleasanton, Calif.) retinal imaging microscope was used to obtain images from retinal layers. […] Three retinal layers were defined and measured in the C57BL/6 mice included in this study: the inner layer, which comprises the retinal nerve fiber layer (RNFL), the ganglion cell layer (GCL), and the inner plexiform layer (IPL); the middle layer, which comprises the inner nuclear layer (INL), the outer plexiform layer (OPL), the outer nuclear layer (ONL), and the outer limiting membrane (OLM); and the outer layer, which comprises the inner and outer segments (IS/OS) of the photoreceptors and the retinal pigment epithelium.

COc1ccc(COc2c(/C=C/C(=O)NO)ccc(OC)c2CC=C(C)C)cc1 [COMPOUND I]
effect on NaN3-induced injury (ARPE-19 cells): significantly reversed
blood flow in ciliary body and choroid ([1]; 30 minutes and 60 minutes after instillation): markedly increased
blood flow in all tissues (iris, ciliary body, retina, choroid) ([1]; 120 minutes after instillation): significantly increased
VEGF level in diabetic eyes, in words (VEGF; 0.5% and 1%): markedly suppressed
VEGF level (Western Blot), DR animals as 100% (VEGF; 0.5% eye drops tid 6 weeks): 77%
VEGF level (Western Blot), DR rats as 100% (VEGF; 1.0% eye drops tid 6 weeks): 50%
leaky area (FFA) (mouse model of CNV; 25 mg/kg/d oral for 7 or 28 days): significantly reduced
tissue hyperplasia resulted from laser damage (mouse model of CNV; 25 mg/kg/d oral, day 7 and day 28): ameliorated

— patent publication US11045435B2, “Methods for treating ocular diseases” (NATUREWISE BIOTECH & MEDICALS CORPORATION, priority 2016, dated 2021)
